We go through 1 molecule from patent USRE43000E1, “Artificial riboswitch for controlling pre-mRNA splicing” (City of Hope, priority 2005, dated 2011).

This assay deals with IgM pre-mRNA (ESE of exon M2). The experiment in a line: In vitro splicing of IgM pre-mRNA with bifunctional theophylline aptamer. It is filed as biochemical, mouse. An excerpt: To test this, we designed a bifunctional theophylline aptamer in which the non-conserved portion of the aptamer is complementary to the ESE present in the alternative exon M2 of the mouse IgM gene (FIG. 16). The IgM pre-mRNA is a well-characterized substrate and its ESE is essential for the splicing of the preceding intron between exon M1 and M2 (Tanaka et al., 1994; Watakabe et al., 1993). To prevent non-specific binding, ^32P-labeled IgM pre-mRNA and bifunctional aptamer were denatured for 1 minute at 90° C. followed by incubation for 10 min at 30° C. Next, the splicing mixture with or without theophylline was added, and reaction mixture incubated at 30° C. for 2 hours. After which the products of the splicing reaction were separated on a 13% denaturing polyacrylamide gel.

As to `Cn1c(=O)c2[nH]cnc2n(C)c1=O` [theophylline], the “theophylline concentration required for reversal of splicing repression” value is on record as 1.0 mM. Further, the “effect of theophylline on splicing repressed by bifunctional aptamer” value (theophylline and bifunctional aptamer together) was “restoration of splicing”.
